Series [1] in a line: Protection of galactosamine-sensitized mice from LPS-induced lethality. The conditions noted are these: 75 μg peptide, 2 ng LPS pre-incubated with peptide 30 minutes. It is filed as in vivo, C57BL/6J mice. How it is done: The anti-endotoxin potency of SSCrFCES was investigated in C57BL/6J mice. Mice are typically resistant to endotoxin. However, the sensitivity of mice to endotoxin can be enhanced >1,000-fold by co-injection with a liver-specific inhibitor, galactosamine (31). […] […] Lethality was observed over 3 days after injection. Statistical analysis were performed using the Kaplan-Meier test (32) and log rank pairwise test.

Series [2] deals with LPS-induced hTNF-α secretion from THP-1. The series is described as follows: Inhibition of LPS-induced hTNF-α secretion from PMA-treated THP-1 cells. The class given is cell-based, human. The method, then:
[…] THP-1 cells were grown in RPMI 1640 medium supplemented with 10% FBS, penicillin (100 U/ml) and streptomycin (0.1 mg/ml), at 37° C. in a humidified environment in the presence of 5% CO2. The cells were maintained at a density between 2.5×10^5 and 2.5×10^6 cells/ml.
THP-1 cells were prepared for experiment by addition of a concentrated stock solution of phorbol myristate acetate (PMA, 0.3. mg/ml in dimethyl sulfoxide) to cell suspension to give a final concentration of 30 ng/ml PMA and 0.01% dimethyl sulfoxide (25). PMA-treated cell suspensions were immediately plated into 96-well microtitre plate at a density of 4×10^5 cells/ml and allowed to differentiate for 48 hours at 37° C. […] At indicated times, the culture medium was collected.

Series [3] is described as follows: Hill's plot for interaction between synthetic peptides and lipid A. The class given is binding. The conditions noted are these: number of peptide molecules to 1 LPS molecule.
The test system of series [4] is Human erythrocytes. Briefly: Hemolysis assay, human erythrocytes. The class given is cell-based. The conditions noted are these: at 100 μg/ml. How it is done:
Human and rabbit erythrocytes were both used to test the hemolytic activities of the peptides. Whole blood was collected in heparinized sterile syringe, transferred to sterile borosilicate tube and centrifuged at 1200 g for 5 minutes at 4° C. The supernatant including the leukocytes above the erythrocyte pellet was discarded. The erythrocytes were washed 3 times using three volumes of prechilled pyrogen-free saline (PFS). An erythrocyte suspension at 0.4% was prepared for the hemolysis assay. Serial two-fold dilutions of the peptides was prepared in PFS and 100 μl aliquots were added to equal volumes of 0.4% erythrocyte solution in a 96-well microtiter plate (Nunclon™ Δ surface, Nunc) to give final peptide concentrations ranging from 6 to 100 μg/ml. The mixtures were incubated at 37° C. for 1 h. The intact erythrocytes were then pelleted by centrifuging at 1000 g for 5 min. One hundred μl of the supernatant was transferred to a new 96-well microtiter plate and the amount of hemoglobin released into the supernatant was determined by reading the absorbance at 414 nm using a SPECTRAmax™ 340 plate reader with SOFTmax PRO™ version 1.2.0. A positive control with 100 μl of 0.4% erythrocyte lysed in 1% Triton-X 100 was taken as 100% lysis. The negative control was the erythrocytes in PFS alone, which gave minimal lysis. This was taken as 0%.

Series [5] has as its system P. aeruginosa ATCC 27853. Briefly: Killing rate assay. It is filed as cell-based, Pseudomonas aeruginosa. The conditions noted are these: peptides at 0.06 μg/ml, initial 10^9 cfu/ml. The text has this:
The killing rate assay was adapted from the MBC test above, with different contact time of peptides with the bacteria arrested at regular intervals and plated for colony count. An initial density of 10^9 cfu/ml was used. […] This is one of the important features of an effective therapeutic agent.

In series [6] the test system is P. aeruginosa. The series is described as follows: Microbicidal concentration (MBC) assay. It is filed as cell-based, Pseudomonas aeruginosa. The method, then: Test strains cultured on Mueller-Hinton agar (MHA, Becton Dickinson, USA) were inoculated into 10 ml Mueller-Hinton broth (MHB, Becton Dickinson, USA) and grown overnight at 37° C. in a shaker incubator (Model 4536, Forma Scientific, Inc., USA) at 230 rpm. Overnight broth cultures were diluted to give a final cell density of 10^5 colony forming units/ml (cfu/ml). One hundred microliters of the bacterial suspension was dispensed into sterile polypropylene 8-strip PCR-tubes (Quality Scientific Plastics, USA). Eleven microliters of serially diluted sushi peptides, ranging in final concentrations of 0.03-4 μg/ml, were then added. The peptides were constituted at 10 times the required test concentrations in 0.01% acetic acid and 0.2% bovine serum albumin (BSA). Positive controls were cultures without test peptides. Uninoculated MHB was used as negative control. All tests were carried out in triplicate.
Cultures were incubated at 37° C. for 18-24 h, with the PCR-tubes held in horizontal position and shaken at 230 rpm. Cell counts were determined by standard drop-count method. The killing efficiency for the four sushi peptides were calculated based on standard drop-count method.

Read-outs that look alike come from different tables or passages of the source. Peptide text beside a SMILES is read from it.

With `CC[C@H](C)[C@H](NC(=O)[C@H](CCCCN)NC(=O)[C@H](C)NC(=O)[C@H](CCCCN)NC(=O)CNC(=O)[C@H](CCCCN)NC(=O)[C@H](CC(C)C)NC(=O)[C@H](CCCCN)NC(=O)[C@H](Cc1ccccc1)NC(=O)CN)C(=O)N[C@@H](CO)C(=O)N[C@@H](CS)C(=O)N[C@@H](CC(C)C)C(=O)N1CCC[C@H]1C(=O)N[C@@H](CC(N)=O)C(=O)NCC(=O)N[C@@H](CCC(N)=O)C(=O)N[C@@H](Cc1c[nH]c2ccccc12)C(=O)N[C@@H](CO)C(=O)N[C@@H](CC(N)=O)C(=O)N[C@@H](Cc1ccccc1)C(=O)N1CCC[C@H]1C(=O)N1CCC[C@H]1C(=O)N[C@@H](CCCCN)C(=O)N[C@@H](CS)C(=O)N[C@H](C(=O)N[C@@H](CCCNC(=N)N)C(=O)N[C@@H](CCC(=O)O)C(=O)N[C@@H](CS)C(=O)N[C@@H](C)C(=O)N[C@@H](CCSC)C(=O)N[C@H](C(=O)N[C@@H](CO)C(=O)N[C@@H](CO)C(=O)O)C(C)C)[C@@H](C)CC` [S1Δ] (H-GFKLKGKAKISCLPNGQWSNFPPKCIRECAMVSS-OH; N-terminus and C-terminus assumed), the “Mouse Protection Assay” value in series [1] is on record as 40% at 75. Also, the IC50 is 53 µM in series [2] (peptide needed for 50% suppression, read-out: Suppression of LPS-Induced cytokine TNF-α (50%)) and 53.3 µM in series [2] (read-out: 50% inhibition of LPS-induced TNF-α release, 10 ng/ml LPS, serum-free). The “Stoichiometry of Binding Cooperativity Hill's Coefficient” value in series [3] is on record as 1.06. Further, the Hemolytic activity result in series [4] is reported as “negligible haemolysis”. Further, the “Killing rate (time to achieve MBC90)” value in series [5] is listed as 7 min. The “Anti-microbial Potency P. aeruginosa MBC90” value in series [6] (MBC) was 0.06 µg/mL. Moreover, in series [6] (P. aeruginosa), the MBC90 result was “(16 nM)”.

The values above are taken from patent US7297551B2, “Recombinant proteins and peptides for endotoxin biosensors, endotoxin removal, and anti-microbial and anti-endotoxin therapeutics” (priority 1998, dated 2007).
